The source of these data is patent US20100160335A1, “PYRIDAZINONE DERIVATIVE AND PDE INHIBITOR CONTAINING THE SAME AS ACTIVE INGREDIENT” (KYORIN PHARMACEUTICAL CO., LTD., priority 2007, published 2010).

In one test the target is T1, PDE4Bcat (Homo sapiens, UniProt Q07343).
T1 construct: made in house; host or cells: Sf9 insect cells (baculovirus, Bac-to-Bac / Gateway)
Description: Phosphodiesterase inhibitory activity, PDE4 ([3H]cAMP, recombinant enzyme). The test is classed as biochemical. To be noted: 30° C., 20 minutes, read-out: IC50(μmol/L) PDE4.

Test [1] relates to LPS acute inflammation model in rats. Description: LPS acute inflammation model in rats (total leukocytes in BALF). The test is classed as in vivo. To be noted: BALF 3 hours after LPS; for inhibition in vivo at 1 mg/kg: Rattus norvegicus, Leukocyte, po, 3 h, read-out: Inhibition rate (total number of leukocytes in BALF); for Inhibition rate (total number of leukocytes in BALF): rat. Here is the method: 1 mg/kg of the compound was orally administered to rat one hour before inhalation of a lipopolysaccharide from E. coli serotype 055:B5 (LPS), and the rat was made to inhale 50 mL of the LPS solution nebulized using a nebulizer for 30 minutes. Then, 3 hours after the LPS inhalation, the rat was euthanized with 20% urethane (5 ml/rat, i.p.). 5 ml of physiological saline for bronchoalveolar lavage was injected into the bronchial tubes and alveoli through the airway, and the bronchial tubes and alveoli were washed three times using a 5 mL syringe. This operation was repeated twice, and the solution was collected as bronchoalveolar lavage fluid (BALF). The collected BALF was centrifuged at 1200 rpm and 4° C. for 10 minutes (Hirtachi; himac CR 5 DL). The pellet was re-suspended in 10 mL of a 0.1% bovine serum albumin-physiological saline, and an equivalent amount of Turk's solution was added thereto to stain leukocytes. The total number of leukocytes was counted under a microscope to calculate the inhibition rate. Further, the indications were as follows: inhibition rate≧90% (++) and 90%>inhibition rate≧50% (+). [ ] means the results of the drug administration after fasting overnight.

For test [2], the target named is T2, PDE3A catalytic domain (PDE3Acat) (Homo sapiens, UniProt Q14432).
T2 construct: made in house; host or cells: Sf9 insect cells (baculovirus, Bac-to-Bac / Gateway)
Description: Phosphodiesterase inhibitory activity, PDE3 ([3H]cAMP, recombinant enzyme). Format: biochemical. To be noted: 30° C., 20 minutes, read-out: IC50(μmol/L) PDE3.

The subject of test [3] is histamine-induced bronchoconstriction in guinea pigs. As to the kind of experiment: Histamine-induced bronchoconstriction reaction in guinea pigs. Format: in vivo. To be noted: Cavia porcellus, iv, 0.5 min, guinea pig, measured 30 seconds after administration, read-out: Inhibition rate (histamine-induced bronchoconstriction); for inhibition in vivo at 0.3 mg/kg: compound 0.3 mg/kg, i.v.; for inhibition in vivo at 0.1 mg/kg: compound 0.1 mg/kg, i.v. (values in [ ]). Here is the method:
Guinea pigs were anesthetized with pentobarbital (30 mg/kg, i.p.). A cannula for intravenous administration was inserted into the left external jugular vein, a cannula for collecting blood and measuring blood pressure was inserted into the right internal carotid artery, and a tracheal cannula was inserted into the trachea. The guinea pigs were maintained on artificial respiration under the conditions of 60 times/min and 10 mL/kg/stroke. The airflow from the side branch of the tracheal cannula was measured by a bronchospasm transducer (Ugo-Basile) and recorded on a computer via Power Lab (ADInstruments Japan). The guinea pigs were immobilized with gallamine (10 mg/kg, i.v.), and histamine (12.5 μg/kg, i.v.) was administered at 10-minute intervals. After the histamine-induced bronchoconstriction became stable, the compound (0.3 mg/kg, i.v.) was administered. The histamine-induced bronchoconstriction reaction was measured 30 seconds after the compound administration to examine the bronchoconstriction inhibitory activity of the compound. The bronchoconstriction was recorded as the airflow value, and the results were represented by the ratio of the maximum value of the histamine- induced airflow 30 seconds after the administration to the maximum value of the airflow before the administration. Also, the test compounds dissolved in DMSO were used. Further, the indications were as follows: inhibition rate≧90% (+++), 90%>inhibition rate≧80% (++), and 80%>inhibition rate≧70% (+). [ ] means the results in the case of 0.1 mg/kg, i.v.

Where [4] appears, read: 1 mg/kg orally one hour before LPS inhalation.
The mark [5] stands for this setting: 1 mg/kg orally after fasting overnight (values in [ ]), one hour before LPS inhalation, 1 mg/kg.
[6] abbreviates: 1 mg/kg orally after fasting overnight (values in [ ]), one hour before LPS inhalation.

Read-outs that look alike come from different tables or passages of the source. Bounds are passed on as bounds.

T1 sequence (Q07343 330-659 limits assumed): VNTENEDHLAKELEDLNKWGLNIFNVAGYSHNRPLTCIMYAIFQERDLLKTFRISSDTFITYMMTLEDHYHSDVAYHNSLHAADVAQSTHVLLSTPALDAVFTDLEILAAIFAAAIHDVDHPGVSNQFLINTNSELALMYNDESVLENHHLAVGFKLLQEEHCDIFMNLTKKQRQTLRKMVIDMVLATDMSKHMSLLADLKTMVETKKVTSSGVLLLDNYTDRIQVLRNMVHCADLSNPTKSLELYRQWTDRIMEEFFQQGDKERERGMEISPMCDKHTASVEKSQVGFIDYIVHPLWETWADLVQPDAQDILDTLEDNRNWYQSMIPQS
T2 sequence (Q14432 674-1093 limits assumed): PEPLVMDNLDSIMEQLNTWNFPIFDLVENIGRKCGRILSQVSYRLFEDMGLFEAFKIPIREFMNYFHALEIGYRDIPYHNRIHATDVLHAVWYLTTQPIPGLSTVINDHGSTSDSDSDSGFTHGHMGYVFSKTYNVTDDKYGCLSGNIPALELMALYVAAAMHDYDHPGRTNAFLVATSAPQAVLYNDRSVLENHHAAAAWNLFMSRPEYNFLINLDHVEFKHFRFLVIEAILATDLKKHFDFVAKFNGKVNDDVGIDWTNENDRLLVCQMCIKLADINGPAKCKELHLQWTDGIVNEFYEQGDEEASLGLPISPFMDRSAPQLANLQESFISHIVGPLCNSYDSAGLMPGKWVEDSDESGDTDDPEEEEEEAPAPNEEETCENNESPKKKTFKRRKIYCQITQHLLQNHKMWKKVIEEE

As for `CCc1ccc2c(C3=NN(CCCCOc4ccc(C5=NNC(=O)CC5C)cc4)C(=O)CC3C)ccc(OC)c2n1` (single isomer, unassigned) [Example 339, 6-(2-Ethyl-8-methoxyquinolin-5-yl)-5-methyl-2-[4-[4-(4-methyl-6-oxo-1,4,5,6-tetrahydropyridazin-3-yl)phenoxy]butyl]-4,5-dihydro-2H-pyridazin-3-one], the IC50 is less than 0.1 µmol/L at PDE4Bcat and 1 to 10 µmol/L in test [2]. Also, the inhibition in vivo at 1 mg/kg in test [1] (setting [4]) is 50 to 90%.
With `CCc1ccc2c(C3=NN(CCCCOc4ccc(C5=NNC(=O)CC5C)cc4)C(=O)CC3C)ccc(OC)c2n1` (single isomer, unassigned) [Example 340, 6-(2-Ethyl-8-methoxyquinolin-5-yl)-5-methyl-2-[4-[4-(4-methyl-6-oxo-1,4,5,6-tetrahydropyridazin-3-yl)phenoxy]butyl]-4,5-dihydro-2H-pyridazin-3-one], the inhibition in vivo at 0.3 mg/kg in test [3] was no less than 90%. Moreover, the IC50 (on PDE4Bcat; in test [2]) was less than 0.1 µmol/L throughout. Besides, the “Inhibition rate (total number of leukocytes in BALF)” value (from here on “Inhibition rate”) in test [1] (setting [4]) is reported as “+ (90%>inhibition rate≧50% (+))”.
Turning to `CCc1ccc2c(-c3ccc(=O)n(CCCCOc4ccc(C5=NNC(=O)CC5C)c(F)c4F)n3)ccc(OC)c2n1` (single isomer, unassigned; (+)) [Example 322, (+)-6-(2-ethyl-8-methoxyquinolin-5-yl)-2-[4-[2,3-difluoro-4-(4-methyl-6-oxo-1,4,5,6-tetrahydropyridazin-3-yl)phenoxy]butyl]-2H-pyridazin-3-one], the IC50 (on PDE4Bcat; in test [2]) was less than 0.1 µmol/L in each case. For the same compound, in test [1] (setting [5]), the “Inhibition rate” value was “[+] (90%>inhibition rate≧50% (+))”.
For `CCc1ccc2c(-c3ccc(=O)n(CCCCOc4ccc(C5=NNC(=O)CC5C)c(F)c4F)n3)ccc(OC)c2n1` (single isomer, unassigned; (-)) [Example 323, (−)-6-(2-ethyl-8-methoxyquinolin-5-yl)-2-[4-[2,3-difluoro-4-(4-methyl-6-oxo-1,4,5,6-tetrahydropyridazin-3-yl)phenoxy]butyl]-2H-pyridazin-3-one], the inhibition in vivo at 0.3 mg/kg in test [3] is 70 to 80%. Further, the IC50 (on PDE4Bcat; in test [2]) was less than 0.1 µmol/L in each case. In addition, the “Inhibition rate” value in test [1] (setting [5]) is “[++] (inhibition rate≧90% (++))”.
For the compound `COc1ccc(-c2ccc(=O)n(CCCCOc3ccc(C4=NNC(=O)CC4)c(F)c3F)n2)c2ccc(C)nc12` [Example 271, 2-[4-[2,3-Difluoro-4-(6-oxo-1,4,5,6-tetrahydropyridazin-3-yl)phenoxy]butyl]-6-(8-methoxy-2-methylquinolin-5-yl)-2H-pyridazin-3-one], the inhibition in vivo at 0.3 mg/kg in test [3] is no less than 90%. The IC50 (on PDE4Bcat; in test [2]) was less than 0.1 µmol/L throughout. The inhibition in vivo at 1 mg/kg in test [1] (setting [6]) fell in the range of 50 to 90%.
For `CCc1ccc2c(-c3ccc(=O)n(CCCCOc4ccc(C5=NNC(=O)CC5)c(F)c4F)n3)ccc(OC)c2n1` [Example 283, 6-(2-Ethyl-8-methoxyquinolin-5-yl)-2-[4-[2,3-difluoro-4-(6-oxo-1,4,5,6-tetrahydropyridazin-3-yl)phenoxy]butyl]-2H-pyridazin-3-one], the IC50 is 0.1 to 1 µmol/L on PDE4Bcat and less than 0.1 µmol/L in test [2]. Moreover, the inhibition in vivo at 1 mg/kg in test [1] (setting [6]) is no less than 90%.
Consider `CCc1ccc2c(-c3ccc(=O)n(CCCCOc4ccc(C5=NNC(=O)CC5C)c(F)c4F)n3)ccc(OC)c2n1` (stereo not drawn) [Example 289, 6-(2-Ethyl-8-methoxyquinolin-5-yl)-2-[4-[2,3-difluoro-4-(4-methyl-6-oxo-1,4,5,6-tetrahydropyridazin-3-yl)phenoxy]butyl]-2H-pyridazin-3-one], for which the inhibition in vivo at 0.3 mg/kg in test [3] is no less than 90%. Also, the IC50 (on PDE4Bcat; in test [2]) was less than 0.1 µmol/L in each case. In addition, the inhibition in vivo at 1 mg/kg in test [1] (setting [4]) was 50 to 90%.
On to `CCc1ccc2c(C3=NN(CCCCOc4ccc(C5=NNC(=O)CC5)c(F)c4F)C(=O)CC3C)ccc(OC)c2n1` (stereo not drawn) [Example 299, 6-(2-Ethyl-8-methoxyquinolin-5-yl)-5-methyl-2-[4-[2,3-difluoro-4-(6-oxo-1,4,5,6-tetrahydropyridazin-3-yl)phenoxy]butyl]-4,5-dihydro-2H-pyridazin-3-one], for which the inhibition in vivo at 0.1 mg/kg in test [3] is no less than 90%. Further, the IC50 (on PDE4Bcat; in test [2]) was less than 0.1 µmol/L each time. The inhibition in vivo at 1 mg/kg in test [1] (setting [6]) fell in the range of 50 to 90%.
`COc1ccc(-c2ccc(=O)n(CCCCOc3ccc(C4=NNC(=O)CC4C)c(F)c3F)n2)c2nc(C(F)(F)F)nn12` (stereo not drawn) [Example 304, 2-[4-[2,3-Difluoro-4-(4-methyl-6-oxo-1,4,5,6-tetrahydropyridazin-3-yl)phenoxy]butyl]-6-(5-methoxy-2-trifluoromethyl-[1,2,4]triazolo [1,5-a]pyridin-8-yl)-2H-pyridazin-3-one]: the inhibition in vivo at 0.3 mg/kg in test [3] is no less than 90%. Further, the IC50 was 1 to 10 µmol/L at PDE4Bcat and less than 0.1 µmol/L in test [2].
Turning to `COc1ccc(-c2ccc(=O)n(CCCCOc3ccc(C4=NNC(=O)CC4)c(F)c3F)n2)c2nc(C(F)(F)F)nn12` [Example 305, 2-[4-[2,3-Difluoro-4-(6-oxo-1,4,5,6-tetrahydropyridazin-3-yl)phenoxy]butyl]-6-(5-methoxy-2-trifluoromethyl-[1,2,4]triazolo[1,5-a]pyridin-8-yl)-2H-pyridazin-3-one], in test [3], the inhibition in vivo at 0.3 mg/kg was no less than 90%. Also, the figures for the IC50 (at PDE4Bcat; in test [2]) were 1 to 10 µmol/L and 0.1 to 1 µmol/L, respectively.
As for `CCc1ccc2c(C3=NN(CCCCOc4ccc(C5=NNC(=O)CC5C)cc4)C(=O)CC3C)ccc(OC)c2n1` (stereo not drawn) [Example 312, 6-(2-Ethyl-8-methoxyquinolin-5-yl)-5-methyl-2-[4-[4-(4-methyl-6-oxo-1,4,5,6-tetrahydropyridazin-3-yl)phenoxy]butyl]-4,5-dihydro-2H-pyridazin-3-one], in test [3], the inhibition in vivo at 0.1 mg/kg was in the range of 70 to 80%. For the same compound, the figures for the IC50 (on PDE4Bcat; in test [2]) were less than 0.1 µmol/L and 0.1 to 1 µmol/L, respectively. Besides, in test [1] (setting [4]), the inhibition in vivo at 1 mg/kg lay in the range of 50 to 90%.
As to `CCc1ccc2c(C3=NN(CCOc4ccc(C5=NNC(=O)CC5C)cc4)C(=O)CC3C)ccc(OC)c2n1` (stereo not drawn) [Example 315, 6-(2-Ethyl-8-methoxyquinolin-5-yl)-5-methyl-2-[2-[4-(4-methyl-6-oxo-1,4,5,6-tetrahydropyridazin-3-yl)phenoxy]ethyl]-4,5-dihydro-2H-pyridazin-3-one], the inhibition in vivo at 0.3 mg/kg in test [3] lay in the range of 70 to 80%. Further, the results for the IC50 (at PDE4Bcat; in test [2]) were less than 0.1 µmol/L and 1 to 10 µmol/L, respectively.
On to `COc1ccc(C2=NN(CCCCOc3ccc(C4=NNC(=O)CC4C)cc3)C(=O)CC2C)c2cccnc12` (stereo not drawn) [Example 316, 6-(8-Methoxyquinolin-5-yl)-5-methyl-2-[4-[4-(4-methyl-6-oxo-1,4,5,6-tetrahydropyridazin-3-yl)phenoxy]butyl]-4,5-dihydro-2H-pyridazin-3-one], for which, in test [3], the inhibition in vivo at 0.1 mg/kg was no less than 90%. Besides, the IC50 is 0.1 to 1 µmol/L on PDE4Bcat and less than 0.1 µmol/L in test [2].
Take `COc1ccc(-c2ccc(=O)n(CCCCOc3ccc(C4=NNC(=O)CC4C)cc3)n2)c2cccnc12` (stereo not drawn) [Example 318, 6-(8-Methoxyquinolin-5-yl)-2-[4-[4-(4-methyl-6-oxo-1,4,5,6-tetrahydropyridazin-3-yl)phenoxy]butyl]-2H-pyridazin-3-one]: in test [3], the inhibition in vivo at 0.3 mg/kg was no less than 90%. Further, the IC50 is 0.1 to 1 µmol/L at PDE4Bcat and less than 0.1 µmol/L in test [2].
